pKi: −log10 of the molar value. A value given as a limit tells only on which side of the number the result lay.

Ki data for 27 compounds are collected here from patent US12492181B2, “Gem-disubstituted piperidine melanocortin subtype-2 receptor (MC2R) antagonists and uses thereof” (Crinetics Pharmaceuticals, Inc., priority 2019, dated 2025).

For the assay, the target named is T1, hMC2 receptor (crude hMC2R membranes from CRE-bla-CHO-K1 cells stably expressing hMC2 receptor and hMRAP accessory protein) (Homo sapiens, UniProt Q01718).
T1 construct: crude membrane fractions
T1 sequence (Q01718 whole entry): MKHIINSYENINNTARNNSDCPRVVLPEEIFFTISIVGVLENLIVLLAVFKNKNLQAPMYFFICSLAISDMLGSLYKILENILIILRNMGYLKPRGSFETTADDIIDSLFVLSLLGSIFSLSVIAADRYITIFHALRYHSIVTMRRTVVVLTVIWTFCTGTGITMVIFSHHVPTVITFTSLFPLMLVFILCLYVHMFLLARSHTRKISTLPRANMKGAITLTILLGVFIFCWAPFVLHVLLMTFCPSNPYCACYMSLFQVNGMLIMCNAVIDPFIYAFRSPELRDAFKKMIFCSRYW
T1 sequence (Q8TCY5 whole entry partner): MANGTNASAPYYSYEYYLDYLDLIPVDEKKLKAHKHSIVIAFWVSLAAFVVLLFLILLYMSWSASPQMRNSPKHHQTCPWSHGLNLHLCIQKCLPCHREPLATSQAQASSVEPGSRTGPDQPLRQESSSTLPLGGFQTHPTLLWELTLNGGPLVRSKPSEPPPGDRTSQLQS
Kind of assay: hMC2 membrane binding assay ([125I]ACTH (1-39) Tyr23, SPA). Particulars: displacement of 0.2 nM [125I]ACTH (1-39) Tyr23 from hMC2R membranes, 1.5 hours at room temperature; read-out: MC2R binding potency. Put shortly: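 Ki values come from non-linear regression of SPA scintillation counts, with compounds displacing [125I]ACTH(1-39) Tyr23. Membranes come from CRE-bla-CHO-K1 cells stably expressing hMC2 receptor together with hMRAP. They are preincubated with WGA-coated PVT SPA beads in 50 mM HEPES pH 7.4 with 0.20% BSA, Mg2+, Ca2+ and protease inhibitors.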
`COc1ccccc1-c1ccc(C2(C(=O)NC[C@@H]3COCCN3C)CCN(c3ccc(C(F)(F)F)cc3C#N)CC2)cn1` [Compound 1-329, 1-[2-cyano-4-(trifluoromethyl)phenyl]-4-[6-(2-methoxyphenyl)pyridin-3-yl]-N-{[(3R)-4-methylmorpholin-3-yl]methyl}piperidine-4-carboxamide]: the pKi is more than 8.00. `CCOc1ncccc1-c1ccc(C2(NC(=O)O[C@H]3CCN(C)C3)CCN(c3ccc(C(F)(F)F)cc3C#N)CC2)cc1` [Compound 2-13, (3S)-1-methylpyrrolidin-3-yl N-{1-[2-cyano-4-(trifluoromethyl)phenyl]-4-[4-(2-ethoxypyridin-3-yl)phenyl]piperidin-4-yl}carbamate]: the pKi was 7.00 to 8.00. The value for `COc1ncc(F)cc1-c1ncc(C2(C(=O)N[C@H]3CCN(C)C3)CCN(c3ccc(C(F)(F)F)cc3C#N)CC2)cc1F` [Compound 1-209, 1-[2-cyano-4-(trifluoromethyl)phenyl]-4-{3,5′-difluoro-2′-methoxy-[2,3′-bipyridin]-5-yl}-N-[(3S)-1-methylpyrrolidin-3-yl]piperidine-4-carboxamide] was more than 8.00. With `CCOc1ncccc1-c1ccc(C2(NC(=O)O[C@@H]3CCN(C)C3)CCN(c3ccc(C(F)(F)F)cc3C#N)CC2)cc1` [Compound 2-12, (3R)-1-methylpyrrolidin-3-yl N-{1-[2-cyano-4-(trifluoromethyl)phenyl]-4-[4-(2-ethoxypyridin-3-yl)phenyl]piperidin-4-yl}carbamate] the figure was 7.00 to 8.00; with `CCOc1ncccc1-c1ccc(C2(C(=O)NC3CN(C)C3)CCN(c3ccc(C(F)(F)F)cc3C#N)CC2)nn1` [Compound 1-140, 1-[2-cyano-4-(trifluoromethyl)phenyl]-4-[6-(2-ethoxypyridin-3-yl)pyridazin-3-yl]-N-(1-methylazetidin-3-yl)piperidine-4-carboxamide], more than 8.00. The value for `COc1ccc(F)cc1-c1ccc(C2(C(=O)N[C@H]3CCN(C)C3)CCN(c3ccc(C(F)(F)F)cc3Cl)CC2)cn1` [Compound 1-155, 1-[2-chloro-4-(trifluoromethyl)phenyl]-4-[6-(5-fluoro-2-methoxyphenyl)pyridin-3-yl]-N-[(3S)-1-methylpyrrolidin-3-yl]piperidine-4-carboxamide] was more than 8.00; that for “(3R)-1-methylpyrrolidin-3-yl N-{1-[2-cyano-4-(trifluoromethyl)phenyl]-4-{2′-ethoxy-[2,3′-bipyridin]-5-yl}piperidin-4-yl}carbamate [Compound 2-22]” was more than 8.00. As to `CNC[C@H](C)NC(=O)C1(c2ccc(-c3cccnc3OC)nc2)CCN(c2ccc(C(F)(F)F)cc2F)CC1` [Compound 1-306, 1-[2-fluoro-4-(trifluoromethyl)phenyl]-4-{2′-methoxy-[2,3′-bipyridin]-5-yl}-N-[(2S)-1-(methylamino)propan-2-yl]piperidine-4-carboxamide], the pKi is more than 8.00. The value for `CNCCNC(=O)C1(c2ccc(-c3cccn3C)nc2)CCN(c2ccc(C(F)(F)F)cc2Cl)CC1` [Compound 1-283, 1-[2-chloro-4-(trifluoromethyl)phenyl]-4-[6-(1-methyl-1H-pyrrol-2-yl)pyridin-3-yl]-N-[2-(methylamino)ethyl]piperidine-4-carboxamide] was more than 8.00. The value for `COc1ccccc1-c1ccc(C2(C(=O)N[C@H]3CCN(C)C3)CCN(c3ccc(C(F)(F)F)cc3C#N)CC2)nn1` [Compound 1-183, 1-[2-cyano-4-(trifluoromethyl)phenyl]-4-[6-(2-methoxyphenyl)pyridazin-3-yl]-N-[(3S)-1-methylpyrrolidin-3-yl]piperidine-4-carboxamide] was more than 8.00; that for `COc1ccc(F)cc1-c1ccc(C2(C(=O)N[C@@H]3CCN(C)C3)CCN(c3ccc(C(F)(F)F)cc3C#N)CC2)cn1` [Compound 1-81, 1-[2-cyano-4-(trifluoromethyl)phenyl]-4-[6-(5-fluoro-2-methoxyphenyl)pyridin-3-yl]-N-[(3R)-1-methylpyrrolidin-3-yl]piperidine-4-carboxamide] was more than 8.00. Turning to `CCOc1ncccc1-c1ccc(C2(C(=O)N[C@H]3CCN(C)C3)CCN(c3ccc(C(F)F)cc3C#N)CC2)cn1` [Compound 1-37, 1-[2-cyano-4-(difluoromethyl)phenyl]-4-{2′-ethoxy-[2,3′-bipyridin]-5-yl}-N-[(3S)-1-methylpyrrolidin-3-yl]piperidine-4-carboxamide], the pKi is more than 8.00.

Turning to `CCOc1ccccc1-c1ccc(C2(C(=O)N[C@H]3CCN(C)C3)CCN(c3ccc(C(F)(F)F)cc3Cl)CC2)nn1` [Compound 1-175, 1-[2-chloro-4-(trifluoromethyl)phenyl]-4-[6-(2-ethoxyphenyl)pyridazin-3-yl]-N-[(3S)-1-methylpyrrolidin-3-yl]piperidine-4-carboxamide], the pKi is more than 8.00. With `CN1CC[C@H](NC(=O)C2(c3ccc(-c4cccn4C)nn3)CCN(c3ccc(C(F)(F)F)cc3F)CC2)C1` [Compound 1-171, 1-[2-fluoro-4-(trifluoromethyl)phenyl]-4-[6-(1-methyl-1H-pyrrol-2-yl)pyridazin-3-yl]-N-[(3S)-1-methylpyrrolidin-3-yl]piperidine-4-carboxamide] the figure was more than 8.00. The value for `CNCCNC(=O)C1(c2ccc(-c3cccn3C)nc2)CCN(c2ccc(C(F)(F)F)cc2F)CC1` [Compound 1-281, 1-[2-fluoro-4-(trifluoromethyl)phenyl]-4-[6-(1-methyl-1H-pyrrol-2-yl)pyridin-3-yl]-N-[2-(methylamino)ethyl]piperidine-4-carboxamide] was more than 8.00; that for `CCOc1ccccc1-c1ccc(C2(C(=O)NC3CN(C)C3)CCN(c3ccc(C(F)(F)F)cc3C#N)CC2)cn1` [Compound 1-76, 1-[2-cyano-4-(trifluoromethyl)phenyl]-4-[6-(2-ethoxyphenyl)pyridin-3-yl]-N-(1-methylazetidin-3-yl)piperidine-4-carboxamide] was more than 8.00. Consider `CCOc1ncccc1-c1ccc(C2(C(=O)N[C@H]3CCN(C)C3)CCN(c3ccc(C(C)=O)cc3C#N)CC2)cn1` [Compound 1-36, 1-(4-acetyl-2-cyanophenyl)-4-{2′-ethoxy-[2,3′-bipyridin]-5-yl}-N-[(3S)-1-methylpyrrolidin-3-yl]piperidine-4-carboxamide], for which the pKi is more than 8.00. `CCOc1ccccc1-c1ccc(C2(NC(=O)C3CN(C)C3)CCN(c3ccc(Cl)cc3C#N)CC2)cn1` [Compound 2-25, N-[1-(4-chloro-2-cyanophenyl)-4-[6-(2-ethoxyphenyl)pyridin-3-yl]piperidin-4-yl]-1-methylazetidine-3-carboxamide]: the pKi was more than 8.00. The value for `CCOc1ncccc1-c1ccc(C2(C(=O)NCCN(C)C)CCN(c3ccc(C(F)(F)F)cc3F)CC2)cn1` [Compound 1-222, N-[2-(dimethylamino)ethyl]-4-{2′-ethoxy-[2,3′-bipyridin]-5-yl}-1-[2-fluoro-4-(trifluoromethyl)phenyl]piperidine-4-carboxamide] was more than 8.00; that for `CCOc1ncccc1-c1ccc(C2(C(=O)N[C@H]3CCN(C)C3)CCN(c3ccc(Cl)cc3C#N)CC2)nn1` [Compound 1-139, 1-(4-chloro-2-cyanophenyl)-4-[6-(2-ethoxypyridin-3-yl)pyridazin-3-yl]-N-[(3S)-1-methylpyrrolidin-3-yl]piperidine-4-carboxamide] was more than 8.00. Turning to `CN1CC[C@H](NC(=O)C2(c3cnc(-c4cccn4C)c(F)c3)CCN(c3ccc(C(F)(F)F)cc3F)CC2)C1` [Compound 1-192, 1-[2-fluoro-4-(trifluoromethyl)phenyl]-4-[5-fluoro-6-(1-methyl-1H-pyrrol-2-yl)pyridin-3-yl]-N-[(3S)-1-methylpyrrolidin-3-yl]piperidine-4-carboxamide], the pKi is more than 8.00. With `COc1ncccc1-c1ccc(C2(C(=O)N[C@@H](C)CN(C)C)CCN(c3ccc(C(F)(F)F)cc3F)CC2)cn1` [Compound 1-295, N-[(2S)-1-(dimethylamino)propan-2-yl]-1-[2-fluoro-4-(trifluoromethyl)phenyl]-4-{2′-methoxy-[2,3′-bipyridin]-5-yl}piperidine-4-carboxamide] the figure was more than 8.00; with `CCOc1ccccc1-c1ccc(C2(NC(=O)CCN(C)C)CCN(c3ccc(Cl)cc3C#N)CC2)cn1` [Compound 2-30, N-[1-(4-chloro-2-cyanophenyl)-4-[6-(2-ethoxyphenyl)pyridin-3-yl]piperidin-4-yl]-3-(dimethylamino)propanamide], more than 8.00; with `COc1ccccc1-c1ccc(C2(C(=O)N[C@H]3C[C@H]4CC[C@@H]3N4C)CCN(c3ccc(C(F)(F)F)cc3C#N)CC2)cn1` (racemic) [Compound 1-252, rac-1-[2-cyano-4-(trifluoromethyl)phenyl]-4-[6-(2-methoxyphenyl)pyridin-3-yl]-N-[(1S,2S,4R)-7-methyl-7-azabicyclo[2.2.1]heptan-2-yl]piperidine-4-carboxamide], 7.00 to 8.00. The value for `CCOc1ncccc1-c1ccc(C2(C(=O)N[C@@H](C)CN(C)C)CCN(c3ccc(C(F)(F)F)cc3C#N)CC2)cn1` [Compound 1-313, 1-[2-cyano-4-(trifluoromethyl)phenyl]-N-[(2S)-1-(dimethylamino)propan-2-yl]-4-{2′-ethoxy-[2,3′-bipyridin]-5-yl}piperidine-4-carboxamide] was more than 8.00; that for `CCOc1ncccc1-c1ccc(C2(C(=O)N[C@@H]3CCNC3)CCN(c3ccc(C(F)(F)F)cc3C#N)CC2)cc1` [Compound 1-2, 1-[2-cyano-4-(trifluoromethyl)phenyl]-4-[4-(2-ethoxypyridin-3-yl)phenyl]-N-[(3R)-pyrrolidin-3-yl]piperidine-4-carboxamide] was more than 8.00; that for `CCOc1ncccc1-c1ccc(C2(NC(=O)CCN)CCN(c3ccc(C(F)(F)F)cc3C#N)CC2)cc1` [Compound 2-3, 3-amino-N-{1-[2-cyano-4-(trifluoromethyl)phenyl]-4-[4-(2-ethoxypyridin-3-yl)phenyl]piperidin-4-yl}propanamide] was 7.00 to 8.00.
